# Test results taken from patent publication US4743617A, “Heterocyclyl-2-propyn-1-amines” (Merrell Dow Pharmaceuticals Inc., priority 1987, dated 1988).
# How the values were obtained:
# [1] = tested on: spontaneously hypertensive rats; assay: lowering of mean blood pressure in conscious spontaneously hypertensive rats (Table II, DBH inhibitory activity in vivo); settings: 30 mg/kg (ip), unanesthetized spontaneously hypertensive rats
# Procedure: The ability of the compounds of this invention to lower blood pressure can be determined in vivo using standard and well-known procedures such as those employed for the continuous recording of arterial blood pressure in conscious animals. For instance, test compounds are administered intraperitoneally (ip) to unanesthetized spontaneously hypertensive rats and the arterial blood pressure is monitored continuously. In tests utilizing the above procedure, the antihypertensive effect of the test compound is readily apparent as indicated by the degree of lowering of mean blood pressure (MBP) noted in Table II.
# [2] = tested on: dopamine-beta-hydroxylase (DBH); assay: time-dependent DBH inhibitory activity in vitro (oxygen uptake, tyramine substrate); assay type: biochemical; settings: Concentration 5 × 10^-5 M, preferably pH 5.0, 37° C.
# Procedure: The DBH inhibitory properties of the compounds of this invention can readily be determined by standard and well-known procedures. […] The test compound is added at the desired concentration, and the system is incubated. At different time internals, aliquots are taken and DBH activity is measured using tyramine as the substrate. The reaction is followed by measuring oxygen uptake using a polarographic electrode and an oxygen monitor by the method of S. May et al., J. Bio. Chem. 256, 2258 (1981).
compound,measurement,setting,value
NCC#Cc1cccs1 [3-(2-thienyl)-2-propyn-1-amine],Duration,[1],14 h
same,Max Change MBP +/St. dev.,[1],-20+/-8 mm Hg
same,t 1/2: time required for 50% log activity remaining,[2],9.2 min.
